Legend:
Type in all cases: binding
[1] = biological target: kinases (KINOMEscan panel) (Homo sapiens, UniProt Q8TDX7); conditions: NEK7; NEW KINOMEscan
[2] = biological target: kinases (KINOMEscan panel) (Homo sapiens, UniProt P21860); conditions: ERBB3; NEW KINOMEscan
[3] = biological target: T1, kinases (KINOMEscan panel) (Homo sapiens, UniProt O00329); conditions: NEW KINOMEscan
T1 sequence (O00329 1-1044): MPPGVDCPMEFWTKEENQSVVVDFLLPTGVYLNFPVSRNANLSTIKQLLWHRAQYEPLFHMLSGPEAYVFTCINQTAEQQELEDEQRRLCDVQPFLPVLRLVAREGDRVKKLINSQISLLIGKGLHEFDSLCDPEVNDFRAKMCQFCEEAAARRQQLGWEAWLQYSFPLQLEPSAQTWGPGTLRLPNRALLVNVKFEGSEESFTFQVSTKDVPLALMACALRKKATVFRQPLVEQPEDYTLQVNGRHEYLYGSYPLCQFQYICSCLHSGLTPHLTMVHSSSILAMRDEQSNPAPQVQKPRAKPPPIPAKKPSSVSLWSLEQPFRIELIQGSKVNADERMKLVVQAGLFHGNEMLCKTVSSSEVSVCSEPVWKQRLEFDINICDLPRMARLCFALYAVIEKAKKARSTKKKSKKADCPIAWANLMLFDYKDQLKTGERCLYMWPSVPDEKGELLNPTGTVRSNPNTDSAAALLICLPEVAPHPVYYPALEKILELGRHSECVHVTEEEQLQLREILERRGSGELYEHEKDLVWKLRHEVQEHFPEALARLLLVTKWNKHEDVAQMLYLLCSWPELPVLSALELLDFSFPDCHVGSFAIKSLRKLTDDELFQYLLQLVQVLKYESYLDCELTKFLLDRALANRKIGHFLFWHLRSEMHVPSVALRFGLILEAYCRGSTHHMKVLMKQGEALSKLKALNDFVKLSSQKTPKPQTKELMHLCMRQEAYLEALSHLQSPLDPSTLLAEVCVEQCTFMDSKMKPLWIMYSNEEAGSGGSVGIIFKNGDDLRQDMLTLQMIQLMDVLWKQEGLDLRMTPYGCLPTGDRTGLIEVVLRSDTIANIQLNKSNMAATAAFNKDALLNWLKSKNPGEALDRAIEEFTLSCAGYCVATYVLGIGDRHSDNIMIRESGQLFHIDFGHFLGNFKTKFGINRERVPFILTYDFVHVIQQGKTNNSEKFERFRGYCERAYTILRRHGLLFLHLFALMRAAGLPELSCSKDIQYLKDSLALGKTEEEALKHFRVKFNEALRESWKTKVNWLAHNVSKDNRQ

[4] = biological target: kinases (KINOMEscan panel) (Homo sapiens, UniProt P78362); conditions: SRPK2; NEW KINOMEscan
Sequence of kinases (KINOMEscan panel) (Homo sapiens, UniProt P78362) (P78362 whole entry): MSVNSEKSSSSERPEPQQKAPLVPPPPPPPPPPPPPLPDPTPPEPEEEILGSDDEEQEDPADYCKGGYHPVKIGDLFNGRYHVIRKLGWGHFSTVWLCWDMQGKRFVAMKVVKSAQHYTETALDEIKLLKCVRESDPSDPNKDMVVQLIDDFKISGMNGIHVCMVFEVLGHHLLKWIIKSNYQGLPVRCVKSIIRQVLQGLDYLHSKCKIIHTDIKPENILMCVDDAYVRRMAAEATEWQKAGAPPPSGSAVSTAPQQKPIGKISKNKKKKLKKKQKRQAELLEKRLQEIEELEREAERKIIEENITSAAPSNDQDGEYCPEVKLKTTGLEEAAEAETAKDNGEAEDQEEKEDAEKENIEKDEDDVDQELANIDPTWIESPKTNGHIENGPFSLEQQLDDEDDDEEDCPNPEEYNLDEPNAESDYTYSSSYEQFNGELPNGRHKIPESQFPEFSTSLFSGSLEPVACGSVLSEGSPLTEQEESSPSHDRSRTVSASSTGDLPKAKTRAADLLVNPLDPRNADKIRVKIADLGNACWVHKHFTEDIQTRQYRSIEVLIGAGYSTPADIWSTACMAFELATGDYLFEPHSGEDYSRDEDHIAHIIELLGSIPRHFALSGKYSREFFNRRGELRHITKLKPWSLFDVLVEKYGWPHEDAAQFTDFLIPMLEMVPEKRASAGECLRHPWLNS

[5] = biological target: kinases (KINOMEscan panel) (Homo sapiens, UniProt P19784); conditions: CSNK2A2; NEW KINOMEscan
Sequence of kinases (KINOMEscan panel) (Homo sapiens, UniProt P19784) (P19784 whole entry): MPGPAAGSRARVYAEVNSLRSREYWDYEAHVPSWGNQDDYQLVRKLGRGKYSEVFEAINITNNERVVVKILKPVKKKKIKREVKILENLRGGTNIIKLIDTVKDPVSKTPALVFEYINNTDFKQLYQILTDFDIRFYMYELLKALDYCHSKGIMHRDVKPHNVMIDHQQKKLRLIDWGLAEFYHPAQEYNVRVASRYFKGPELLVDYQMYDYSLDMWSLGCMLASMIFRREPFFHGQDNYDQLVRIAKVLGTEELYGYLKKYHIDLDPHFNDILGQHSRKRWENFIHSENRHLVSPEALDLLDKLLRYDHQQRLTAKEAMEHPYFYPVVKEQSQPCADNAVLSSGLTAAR

[6] = biological target: T2, kinases (KINOMEscan panel) (Homo sapiens, UniProt P51956); conditions: kinase NEK3; NEW KINOMEscan
T2 sequence (P51956 1-506): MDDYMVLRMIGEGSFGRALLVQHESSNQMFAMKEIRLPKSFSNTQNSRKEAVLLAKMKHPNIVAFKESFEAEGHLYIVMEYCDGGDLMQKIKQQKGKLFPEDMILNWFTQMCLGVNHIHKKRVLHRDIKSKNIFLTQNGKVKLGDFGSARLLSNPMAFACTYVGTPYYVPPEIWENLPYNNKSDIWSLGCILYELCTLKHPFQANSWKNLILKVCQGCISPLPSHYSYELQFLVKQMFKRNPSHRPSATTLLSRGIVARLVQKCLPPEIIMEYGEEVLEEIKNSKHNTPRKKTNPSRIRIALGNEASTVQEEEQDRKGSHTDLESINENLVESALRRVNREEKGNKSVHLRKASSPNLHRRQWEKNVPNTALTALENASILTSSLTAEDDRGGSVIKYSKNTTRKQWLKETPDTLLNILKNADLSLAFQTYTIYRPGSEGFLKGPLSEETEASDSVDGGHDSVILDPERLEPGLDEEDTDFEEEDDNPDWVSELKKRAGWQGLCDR

[7] = biological target: kinases (KINOMEscan panel) (Homo sapiens, UniProt Q9NYY3); conditions: PLK2; NEW KINOMEscan
Sequence of kinases (KINOMEscan panel) (Homo sapiens, UniProt Q9NYY3) (Q9NYY3 whole entry): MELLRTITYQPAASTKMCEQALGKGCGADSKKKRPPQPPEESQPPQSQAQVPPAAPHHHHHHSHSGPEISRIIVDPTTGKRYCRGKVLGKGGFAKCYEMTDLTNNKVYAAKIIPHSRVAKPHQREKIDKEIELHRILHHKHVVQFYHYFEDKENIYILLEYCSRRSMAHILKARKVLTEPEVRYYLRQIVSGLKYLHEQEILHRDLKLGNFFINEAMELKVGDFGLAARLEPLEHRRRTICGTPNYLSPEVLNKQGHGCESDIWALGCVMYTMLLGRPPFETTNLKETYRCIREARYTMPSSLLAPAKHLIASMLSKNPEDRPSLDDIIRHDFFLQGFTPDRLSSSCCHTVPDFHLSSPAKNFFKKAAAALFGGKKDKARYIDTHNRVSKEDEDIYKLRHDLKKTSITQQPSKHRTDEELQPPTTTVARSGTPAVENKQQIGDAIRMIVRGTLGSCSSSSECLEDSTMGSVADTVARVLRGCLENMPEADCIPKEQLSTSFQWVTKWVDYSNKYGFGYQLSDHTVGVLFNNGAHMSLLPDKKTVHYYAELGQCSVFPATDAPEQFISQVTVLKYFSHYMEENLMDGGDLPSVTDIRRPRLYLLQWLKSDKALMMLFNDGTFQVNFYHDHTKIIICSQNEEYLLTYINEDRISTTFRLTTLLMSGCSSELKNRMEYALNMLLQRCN

[8] = biological target: T3, kinases (KINOMEscan panel) (Homo sapiens, UniProt Q9BXA7); conditions: kinase TSSK1B; NEW KINOMEscan
T3 sequence (Q9BXA7 1-367): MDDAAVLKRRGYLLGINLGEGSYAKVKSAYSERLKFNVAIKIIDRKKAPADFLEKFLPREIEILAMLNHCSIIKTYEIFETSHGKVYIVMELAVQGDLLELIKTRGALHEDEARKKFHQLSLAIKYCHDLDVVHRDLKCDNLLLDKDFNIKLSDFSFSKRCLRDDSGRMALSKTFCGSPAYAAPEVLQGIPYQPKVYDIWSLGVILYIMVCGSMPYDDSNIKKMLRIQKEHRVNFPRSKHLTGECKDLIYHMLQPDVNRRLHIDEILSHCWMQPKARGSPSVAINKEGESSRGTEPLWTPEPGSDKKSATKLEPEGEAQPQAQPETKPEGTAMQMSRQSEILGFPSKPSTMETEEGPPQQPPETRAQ

[9] = biological target: kinases (KINOMEscan panel) (Homo sapiens, UniProt P00519, Q252H); conditions: NEW KINOMEscan; for KINOMEscan ABL1(Q252H)-nonphosphorylated: kinase ABL1(Q252H)-nonphosphorylated; for KINOMEscan ABL1(Q252H)-phosphorylated: kinase ABL1(Q252H)-phosphorylated
[10] = biological target: kinases (KINOMEscan panel) (Homo sapiens, UniProt O15264)
Sequence of kinases (KINOMEscan panel) (Homo sapiens, UniProt O15264) (O15264 whole entry): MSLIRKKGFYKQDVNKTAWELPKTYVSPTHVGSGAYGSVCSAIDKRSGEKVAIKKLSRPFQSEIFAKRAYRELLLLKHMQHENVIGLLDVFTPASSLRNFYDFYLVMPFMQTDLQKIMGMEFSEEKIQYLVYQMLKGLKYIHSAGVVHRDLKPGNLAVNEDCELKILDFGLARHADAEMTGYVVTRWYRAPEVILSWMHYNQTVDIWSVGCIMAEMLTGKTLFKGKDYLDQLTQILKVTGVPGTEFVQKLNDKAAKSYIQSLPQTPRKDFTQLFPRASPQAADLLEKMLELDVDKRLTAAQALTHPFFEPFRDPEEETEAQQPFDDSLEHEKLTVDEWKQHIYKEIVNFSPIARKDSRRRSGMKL

Sequence of kinases (KINOMEscan panel) (Homo sapiens, UniProt Q8TDX7) (Q8TDX7 whole entry): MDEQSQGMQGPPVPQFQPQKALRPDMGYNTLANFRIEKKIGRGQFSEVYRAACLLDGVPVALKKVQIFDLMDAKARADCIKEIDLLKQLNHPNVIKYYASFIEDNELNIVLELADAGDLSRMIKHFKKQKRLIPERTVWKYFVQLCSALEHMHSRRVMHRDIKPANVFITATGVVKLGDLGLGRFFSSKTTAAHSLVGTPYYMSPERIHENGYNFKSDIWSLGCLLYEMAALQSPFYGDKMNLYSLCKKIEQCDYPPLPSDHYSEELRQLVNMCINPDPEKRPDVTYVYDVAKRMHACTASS
Sequence of kinases (KINOMEscan panel) (Homo sapiens, UniProt P21860) (P21860 20-1342): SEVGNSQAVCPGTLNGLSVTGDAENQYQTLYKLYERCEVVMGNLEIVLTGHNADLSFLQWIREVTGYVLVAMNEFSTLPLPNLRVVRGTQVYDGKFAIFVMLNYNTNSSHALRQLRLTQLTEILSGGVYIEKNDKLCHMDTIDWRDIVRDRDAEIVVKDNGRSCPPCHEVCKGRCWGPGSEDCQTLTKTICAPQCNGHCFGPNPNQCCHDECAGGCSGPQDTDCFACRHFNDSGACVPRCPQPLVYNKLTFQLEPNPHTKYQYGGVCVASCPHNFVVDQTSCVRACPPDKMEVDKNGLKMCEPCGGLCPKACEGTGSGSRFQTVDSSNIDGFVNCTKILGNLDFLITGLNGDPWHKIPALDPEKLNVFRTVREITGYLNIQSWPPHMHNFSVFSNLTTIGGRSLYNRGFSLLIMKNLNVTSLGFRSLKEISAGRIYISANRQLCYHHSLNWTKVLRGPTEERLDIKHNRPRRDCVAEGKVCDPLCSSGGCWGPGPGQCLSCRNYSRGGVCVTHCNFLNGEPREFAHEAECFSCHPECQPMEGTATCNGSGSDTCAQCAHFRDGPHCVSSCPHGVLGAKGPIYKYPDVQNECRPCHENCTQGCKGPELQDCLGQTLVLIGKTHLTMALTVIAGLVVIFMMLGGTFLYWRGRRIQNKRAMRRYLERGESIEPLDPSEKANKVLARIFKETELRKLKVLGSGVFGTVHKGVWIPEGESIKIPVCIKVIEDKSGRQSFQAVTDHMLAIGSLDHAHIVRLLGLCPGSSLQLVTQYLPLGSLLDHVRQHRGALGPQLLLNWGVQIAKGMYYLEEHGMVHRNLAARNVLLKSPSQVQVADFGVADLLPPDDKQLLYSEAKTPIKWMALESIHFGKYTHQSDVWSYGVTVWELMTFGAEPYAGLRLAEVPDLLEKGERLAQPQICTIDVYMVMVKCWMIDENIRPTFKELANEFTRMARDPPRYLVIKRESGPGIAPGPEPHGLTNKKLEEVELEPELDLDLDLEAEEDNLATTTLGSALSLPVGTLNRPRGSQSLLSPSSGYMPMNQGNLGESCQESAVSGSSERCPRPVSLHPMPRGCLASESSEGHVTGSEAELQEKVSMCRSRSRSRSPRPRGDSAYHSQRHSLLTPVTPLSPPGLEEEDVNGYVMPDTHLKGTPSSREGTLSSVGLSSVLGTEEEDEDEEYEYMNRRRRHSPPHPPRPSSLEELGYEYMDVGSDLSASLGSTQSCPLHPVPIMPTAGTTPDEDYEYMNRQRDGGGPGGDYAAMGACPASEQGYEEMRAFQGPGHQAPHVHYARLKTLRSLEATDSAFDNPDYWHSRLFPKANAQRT

SMILES | KINOMEscan NEK7 [1] | KINOMEscan ERBB3 [2] | KINOMEscan PIK3CD [3] | KINOMEscan SRPK2 [4] | KINOMEscan CSNK2A2 [5] | KINOMEscan NEK3 [6] | KINOMEscan PLK2 [7] | KINOMEscan TSSK1B [8] | KINOMEscan ABL1(Q252H)-nonphosphorylated [9] | KINOMEscan ABL1(Q252H)-phosphorylated [9] | KINOMEscan MAPK13/p38-delta [10]
Cc1cccc(-c2nc(Nc3ccc4nn(C)cc4c3)c3ccccc3n2)n1 [NK167] | 0 | 0 | 0 | 0 | 0 | 46 | 0 | 15 | 0 | 0 | 0
Cc1cccc(-c2nc(N(C)c3ccc4ncsc4c3)c3ccccc3n2)n1 [NK-161] | 0 | 11 | 2 | 0 | 5 | 33 | 0 | 11 | 0 | 0 | 6

— article PMC9851200, “Multiparameter phenotypic screening for endogenous TFEB and TFE3 translocation identifies novel chemical series modulating lysosome function” (Autophagy, 2022)
